In PubChem BioAssay (NCI):
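Five concentrations, 48 hours, 96-well plates. TGI denotes the concentration required for complete inhibition of growth.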

How the values were obtained:
Experiment in all cases: NCI-60 cell line screen, 48 h
OVCAR-3 ovarian = tested on: OVCAR-3 ovarian
UACC-62 melanoma = tested on: UACC-62 melanoma
ACHN renal = tested on: ACHN renal
A498 renal = tested on: A498 renal
OVCAR-8 ovarian = tested on: OVCAR-8 ovarian
NCI-H460 lung = tested on: NCI-H460 lung
M14 melanoma = tested on: M14 melanoma
SF-295 CNS = tested on: SF-295 CNS
UACC-257 melanoma = tested on: UACC-257 melanoma
NCI-H522 lung = tested on: NCI-H522 lung
SW-620 colon = tested on: SW-620 colon
OVCAR-4 ovarian = tested on: OVCAR-4 ovarian
A549 NSCLC = tested on: A549 NSCLC
SK-MEL-2 melanoma = tested on: SK-MEL-2 melanoma
NCI-H226 lung = tested on: NCI-H226 lung
786-0 renal = tested on: 786-0 renal
KM12 colon = tested on: KM12 colon
HOP-62 NSCLC = tested on: HOP-62 NSCLC
SR leukemia = tested on: SR leukemia
HOP-92 NSCLC = tested on: HOP-92 NSCLC
SNB-19 CNS = tested on: SNB-19 CNS
SK-OV-3 ovarian = tested on: SK-OV-3 ovarian
SN12C renal = tested on: SN12C renal
SF-539 CNS = tested on: SF-539 CNS
OVCAR-5 ovarian = tested on: OVCAR-5 ovarian
TK-10 renal = tested on: TK-10 renal
KM20L2 colon = tested on: KM20L2 colon
U251 CNS = tested on: U251 CNS
COLO 205 colon = tested on: COLO 205 colon
LXFL 529 NSCLC = tested on: LXFL 529 NSCLC
SF-268 CNS = tested on: SF-268 CNS
LOX IMVI melanoma = tested on: LOX IMVI melanoma
MOLT-4 leukemia = tested on: MOLT-4 leukemia
DLD-1 colon = tested on: DLD-1 colon
SK-MEL-5 melanoma = tested on: SK-MEL-5 melanoma
IGROV1 ovarian = tested on: IGROV1 ovarian
RXF-631 renal = tested on: RXF-631 renal
HOP-18 NSCLC = tested on: HOP-18 NSCLC
HCT-15 colon = tested on: HCT-15 colon
CCRF-CEM leukemia = tested on: CCRF-CEM leukemia
CAKI-1 renal = tested on: CAKI-1 renal
RPMI-8226 leukemia = tested on: RPMI-8226 leukemia
SK-MEL-28 melanoma = tested on: SK-MEL-28 melanoma
NCI-H23 lung = tested on: NCI-H23 lung
UO-31 renal = tested on: UO-31 renal
K-562 leukemia = tested on: K-562 leukemia
HL-60(TB) leukemia = tested on: HL-60(TB) leukemia
EKVX NSCLC = tested on: EKVX NSCLC

Compound: Cn1c(O)c(C(=O)NC2CCCCC2)c(=O)n(C)c1=S
- TGI (OVCAR-3 ovarian): 26.6 µM
- TGI (UACC-62 melanoma): 14.4 µM
- TGI (ACHN renal): 13.7 µM
- TGI (A498 renal): 13 µM
- TGI (OVCAR-8 ovarian): 17.9 µM
- TGI (NCI-H460 lung): 21.9 µM
- TGI (M14 melanoma): 21.4 µM
- TGI (SF-295 CNS): 17.8 µM
- TGI (UACC-257 melanoma): 28.5 µM
- TGI (NCI-H522 lung): 16.9 µM
- TGI (SW-620 colon): 25 µM
- TGI (OVCAR-4 ovarian): 42.7 µM
- TGI (A549 NSCLC): 17.4 µM
- TGI (SK-MEL-2 melanoma): 15 µM
- TGI (NCI-H226 lung): 30.5 µM
- TGI (786-0 renal): 22.9 µM
- TGI (KM12 colon): 27.7 µM
- TGI (HOP-62 NSCLC): 16.8 µM
- TGI (SR leukemia): 48.9 µM
- TGI (HOP-92 NSCLC): 8.48 µM
- TGI (SNB-19 CNS): 71.2 µM
- TGI (SK-OV-3 ovarian): 23.8 µM
- TGI (SN12C renal): 59.9 µM
- TGI (SF-539 CNS): 21.4 µM
- TGI (OVCAR-5 ovarian): 38.9 µM
- TGI (TK-10 renal): 33.3 µM
- TGI (KM20L2 colon): 23.4 µM
- TGI (U251 CNS): 26.7 µM
- TGI (COLO 205 colon): 4.42 µM
- TGI (LXFL 529 NSCLC): 16 µM
- TGI (SF-268 CNS): 21.6 µM
- TGI (LOX IMVI melanoma): 28.5 µM
- TGI (MOLT-4 leukemia): 12.6 µM
- TGI (DLD-1 colon): 24 µM
- TGI (SK-MEL-5 melanoma): 17 µM
- TGI (IGROV1 ovarian): 27.8 µM
- TGI (RXF-631 renal): 20.1 µM
- TGI (HOP-18 NSCLC): 9.63 µM
- TGI (HCT-15 colon): 25.9 µM
- TGI (CCRF-CEM leukemia): > 100 µM
- TGI (CAKI-1 renal): 26.5 µM
- TGI (RPMI-8226 leukemia): 17.2 µM
- TGI (SK-MEL-28 melanoma): 16.8 µM
- TGI (NCI-H23 lung): 14.5 µM

Compound: CCCCCCc1cc(C(=O)Nc2ccc(Cl)cc2)nc(=S)[nH]1
- TGI (OVCAR-3 ovarian): > 1 µM
- TGI (A498 renal): > 1 µM
- TGI (M14 melanoma): > 100 µM
- TGI (UACC-257 melanoma): > 100 µM
- TGI (UO-31 renal): > 100 µM
- TGI (NCI-H522 lung): > 100 µM
- TGI (K-562 leukemia): > 100 µM
- TGI (SW-620 colon): > 100 µM
- TGI (OVCAR-4 ovarian): > 100 µM
- TGI (A549 NSCLC): > 100 µM
- TGI (HL-60(TB) leukemia): > 100 µM
- TGI (SK-MEL-2 melanoma): > 100 µM
- TGI (KM12 colon): > 100 µM
- TGI (HOP-62 NSCLC): > 100 µM
- TGI (SR leukemia): > 100 µM
- TGI (HOP-92 NSCLC): > 100 µM
- TGI (EKVX NSCLC): > 100 µM
- TGI (SNB-19 CNS): > 1 µM
- TGI (SK-OV-3 ovarian): > 100 µM
- TGI (SN12C renal): > 100 µM
- TGI (SF-539 CNS): > 100 µM
- TGI (OVCAR-5 ovarian): 85.8 µM
- TGI (KM20L2 colon): > 1 µM
- TGI (U251 CNS): > 100 µM
- TGI (LXFL 529 NSCLC): > 100 µM
- TGI (MOLT-4 leukemia): > 100 µM
- TGI (SK-MEL-5 melanoma): > 100 µM
- TGI (IGROV1 ovarian): > 100 µM
- TGI (RXF-631 renal): > 100 µM
- TGI (HCT-15 colon): > 1 µM
- TGI (CCRF-CEM leukemia): > 100 µM
- TGI (CAKI-1 renal): > 100 µM
- TGI (RPMI-8226 leukemia): > 100 µM
- TGI (NCI-H23 lung): > 100 µM
